Measured values reported in patent publication US8022239B2, “Mechanism-based inactivators of autotaxin” (The University of Memphis Research Foundation, priority 2008, dated 2011).

Biological target: T1, autotaxin (ATX) (Homo sapiens, UniProt Q13822)
T1 construct: concentrated conditioned serum-free medium (CCM) from MDA MB-435 cells as the source of ATX; endogenous in cells; host or cells: MDA-MB-435 cells (serum-free conditioned medium, concentrated ~10 fold)
Assay: Autotaxin inactivation analysis: ATX-mediated hydrolysis of FS-3 (fluorescence), concentrated conditioned medium from MDA MB-435 cells as ATX source
Assay type: biochemical
Conditions: FS-3 substrate
Experimental: The test protocol was as follows:
MDA-MB-435 cells were cultured at 37° C. and 5% CO2 in Dulbecco's Modified Eagle Medium (DMEM) (MediaTech, Herndon, Va.) containing 5% fetal bovine serum (Hyclone, Logan, Utah), 100 U/ml penicillin, 100 μg/ml streptomycin (Hyclone, Logan, Utah) and 292 μg/ml L-glutamine (Hyclone, Logan, Utah). Cells were grown to ˜80% confluence at which time the cells were washed twice with sterile phosphate buffered saline prior to the addition of serum free DMEM containing L-glutamine. Conditioned medium was collected after 24-30 hours, supplemented with 20% ethylene glycol and was clarified by centrifugation at 3000×g and 4° C. for 10 min. The media was concentrated ˜10 fold and buffer exchanged into Tris (50 mM, pH 7.4) containing 20% ethylene glycol using an Amicon 8050 cell fitted with a PM30 filter (MILLIPORE®, Billerica, Mass.). Aliquots of concentrated conditioned media were stored at 4° C. until needed.
ATX inhibition was assayed using FS-3 (Echelon Biosciences, Inc., Salt Lake City, Utah, USA) as a substrate and ˜10 times concentrated conditioned serum-free medium (CCM) from MDA MB-435 cells as the source of ATX. Assays were performed in 96-well plates with CCM comprising one-third of the total volume and final FS-3 and charcoal-stripped fatty acid free BSA concentrations of 1 and 30 μM in assay buffer (1 mM each CaCl2 and MgCl2, 5 mM KCl, 140 mM NaCl, 50 mM Tris pH 8.0). Fluorescence was read at 5 minute intervals by a Synergy2 system (BioTek, Winooski, Vt.) with excitation and emission wavelengths of 485 and 538 nm, respectively. […] Fluorescence readings were normalized to vehicle control after subtraction of fluorescence in the absence of CCM. Data are shown as the mean±S.D. of at least three wells.

[1] = 3 uM, time 0 hour, low % response = effective inhibition

SMILES: CCCCCCCCCCCCCCOP(=O)(O)Oc1ccc(C(F)F)cc1 [Example 5, (14:0)-p-difluorophosphodiester]
- Fluorescence (% Response) [1]: 92.5%
- Fluorescence (% Response) (3 uM, time 1 hour): 57.1%
- Fluorescence (% Response) (3 uM, time 3 hours): 42.7%
- Fluorescence (% Response) (3 uM, time 6 hours): 31.2%
- Fluorescence (% Response) (30 uM, time 0 hour): 24.5%
- Fluorescence (% Response) (30 uM, time 1 hour): 14.3%
- Fluorescence (% Response) (30 uM, time 3 hours): 12.9%
- Fluorescence (% Response) (30 uM, time 6 hours): 9.6%

SMILES: CCCCCCCCCCCCCCCCOP(=O)(O)Oc1ccccc1CF [Example 10, (16:0)-o-monofluorophosphodiester]
- Fluorescence (% Response) [1]: 86.6%
- Fluorescence (% Response) (3 uM, time 1 hour): 29.3%
- Fluorescence (% Response) (3 uM, time 3 hours): 10.6%
- Fluorescence (% Response) (3 uM, time 6 hours): 4.7%
- Fluorescence (% Response) (30 uM, time 0 hour): 0.4%
- Fluorescence (% Response) (30 uM, time 1 hour): −16.8%
- Fluorescence (% Response) (30 uM, time 3 hours): −18.7%
- Fluorescence (% Response) (30 uM, time 6 hours): −17.0%

SMILES: CCCCCCCCCCCCCCOP(=O)(O)Oc1ccc(CF)cc1 [Example 6, (14:0)-p-monofluorophosphodiester]
- Fluorescence (% Response) [1]: 95.9%
- Fluorescence (% Response) (3 uM, time 1 hour): 61.9%
- Fluorescence (% Response) (3 uM, time 3 hours): 45.7%
- Fluorescence (% Response) (3 uM, time 6 hours): 32.7%
- Fluorescence (% Response) (30 uM, time 0 hour): 48.9%
- Fluorescence (% Response) (30 uM, time 1 hour): 31.3%
- Fluorescence (% Response) (30 uM, time 3 hours): 25.0%
- Fluorescence (% Response) (30 uM, time 6 hours): 18.5%

SMILES: CCCCCCCCCCCCCCCCCCOP(=O)(O)Oc1ccc(C(F)F)cc1 [Example 1, (18:0)-p-difluorophosphodiester]
- Fluorescence (% Response) (30 uM, time 0 hour): 96.1%
- Fluorescence (% Response) (100 uM, time 0 hour): 94.1%

SMILES: CCCCCCCCCCCCCCCCCCOP(=O)(O)Oc1ccc(CF)cc1 [Example 2, (18:0)-p-monofluorophosphodiester]
- Fluorescence (% Response) [1]: 83.3%
- Fluorescence (% Response) (3 uM, time 1 hour): 47.9%
- Fluorescence (% Response) (3 uM, time 3 hours): 28.1%
- Fluorescence (% Response) (3 uM, time 6 hours): 25.0%
- Fluorescence (% Response) (30 uM, time 0 hour): 57.3%
- Fluorescence (% Response) (30 uM, time 1 hour): 35.4%
- Fluorescence (% Response) (30 uM, time 3 hours): 9.4%
- Fluorescence (% Response) (30 uM, time 6 hours): −2.1%

SMILES: CCCCCCCCCCCCCCCCOP(=O)(O)Oc1ccc(C(F)F)cc1 [Example 3, (16:0)-p-difluorophosphodiester]
- Fluorescence (% Response) [1]: 94.8%
- Fluorescence (% Response) (3 uM, time 1 hour): 60.4%
- Fluorescence (% Response) (3 uM, time 3 hours): 44.8%
- Fluorescence (% Response) (3 uM, time 6 hours): 34.4%
- Fluorescence (% Response) (30 uM, time 0 hour): 71.9%
- Fluorescence (% Response) (30 uM, time 1 hour): 37.5%
- Fluorescence (% Response) (30 uM, time 3 hours): 19.0%

SMILES: CCCCCCCCCCCCOP(=O)(O)Oc1ccc(CF)cc1 [Example 8, (12:0)-p-monofluorophosphodiester]
- Fluorescence (% Response) [1]: 99.4%
- Fluorescence (% Response) (3 uM, time 1 hour): 70.0%
- Fluorescence (% Response) (3 uM, time 3 hours): 52.2%
- Fluorescence (% Response) (3 uM, time 6 hours): 40.6%
- Fluorescence (% Response) (30 uM, time 0 hour): 89.1%
- Fluorescence (% Response) (30 uM, time 1 hour): 63.0%
- Fluorescence (% Response) (30 uM, time 3 hours): 48.4%
- Fluorescence (% Response) (30 uM, time 6 hours): 37.7%

SMILES: CCCCCCCCCCCCCCCCOP(=O)(O)Oc1ccc(CF)cc1 [Example 4, (16:0)-p-monofluorophosphodiester]
- Fluorescence (% Response) [1]: 81.3%
- Fluorescence (% Response) (3 uM, time 1 hour): 50.0%
- Fluorescence (% Response) (3 uM, time 3 hours): 33.3%
- Fluorescence (% Response) (3 uM, time 6 hours): 21.9%
- Fluorescence (% Response) (30 uM, time 0 hour): 26.0%
- Fluorescence (% Response) (30 uM, time 1 hour): 12.5%
- Fluorescence (% Response) (30 uM, time 3 hours): 5.2%
- Fluorescence (% Response) (30 uM, time 6 hours): −2.1%

SMILES: CCCCCCCCCCCCOP(=O)(O)Oc1ccc(C(F)F)cc1 [Example 7, (12:0)-p-difluorophosphodiester]
- Fluorescence (% Response) [1]: 93.9%
- Fluorescence (% Response) (3 uM, time 1 hour): 64.5%
- Fluorescence (% Response) (3 uM, time 3 hours): 48.3%
- Fluorescence (% Response) (3 uM, time 6 hours): 37.0%
- Fluorescence (% Response) (30 uM, time 0 hour): 52.0%
- Fluorescence (% Response) (30 uM, time 1 hour): 36.2%
- Fluorescence (% Response) (30 uM, time 3 hours): 29.4%
- Fluorescence (% Response) (30 uM, time 6 hours): 24.9%
